In PubChem BioAssay AID1259407 (Chemical Carcinogenesis Research Information System (CCRIS), 2018):
Activity calls are given as the source filed them. The rule behind the calls is not given here.

Tested on: CCRIS mutagenicity, Ames/micronucleus/aberration tests
Assay: CCRIS mutagenicity studies

Measured: mutagenic call

c1ccccc1
inactive: Test System: AMES SALMONELLA TYPHIMURIUM, Strain/Indicator: TA100, Metabolic Activation: RAT, LIVER, S-9, PHENOBARBITAL, Method: PREINCUBATION inactive; negative | Test System: AMES SALMONELLA TYPHIMURIUM, Strain/Indicator: TA100, Metabolic Activation: RAT, LIVER, S-9, PHENOBARBITAL, Method: STANDARD PLATE inactive; negative | Test System: AMES SALMONELLA TYPHIMURIUM, Strain/Indicator: TA100, Metabolic Activation: RAT, LIVER, S-9, PYRAZOLE, Method: STANDARD PLATE inactive; negative | Test System: AMES SALMONELLA TYPHIMURIUM, Strain/Indicator: TA100, Metabolic Activation: S-9, Method: STANDARD PLATE inactive; negative | Test System: AMES SALMONELLA TYPHIMURIUM, Strain/Indicator: TA102, Metabolic Activation: NONE, Method: STANDARD PLATE inactive; negative | Test System: AMES SALMONELLA TYPHIMURIUM, Strain/Indicator: TA102, Metabolic Activation: RAT, LIVER, S-9, ETHANOL, Method: STANDARD PLATE inactive; negative | Test System: AMES SALMONELLA TYPHIMURIUM, Strain/Indicator: TA102, Metabolic Activation: RAT, LIVER, S-9, PYRAZOLE, Method: STANDARD PLATE inactive; negative | Test System: AMES SALMONELLA TYPHIMURIUM, Strain/Indicator: TA102, Metabolic Activation: S-9, Method: STANDARD PLATE inactive; negative | Test System: AMES SALMONELLA TYPHIMURIUM, Strain/Indicator: TA104, Metabolic Activation: RAT, LIVER, S-9, AROCLOR 1254, Method: DESICCATOR inactive; negative | Test System: AMES SALMONELLA TYPHIMURIUM, Strain/Indicator: TA1535, Metabolic Activation: HAMSTER LIVER S-9, AROCLOR 1254 (10 OR 30%), Method: PREINCUBATION inactive; negative | Test System: AMES SALMONELLA TYPHIMURIUM, Strain/Indicator: TA1535, Metabolic Activation: NONE, Method: DESICCATOR inactive; negative | Test System: AMES SALMONELLA TYPHIMURIUM, Strain/Indicator: TA1535, Metabolic Activation: NONE, Method: PREINCUBATION inactive; negative | Test System: AMES SALMONELLA TYPHIMURIUM, Strain/Indicator: TA1535, Metabolic Activation: NONE, Method: STANDARD PLATE inactive; negative | Test System: AMES SALMONELLA TYPHIMURIUM, Strain/Indicator: TA1535, Metabolic Activation: RAT LIVER S-9, AROCLOR 1254 (10 OR 30%), Method: PREINCUBATION inactive; negative | Test System: AMES SALMONELLA TYPHIMURIUM, Strain/Indicator: TA1535, Metabolic Activation: RAT, LIVER, S-9, AROCLOR 1254, Method: STANDARD PLATE inactive; negative | Test System: AMES SALMONELLA TYPHIMURIUM, Strain/Indicator: TA1535, Metabolic Activation: RAT, LIVER, S-9, PYRAZOLE, Method: STANDARD PLATE inactive; negative | Test System: AMES SALMONELLA TYPHIMURIUM, Strain/Indicator: TA1537, Metabolic Activation: NONE, Method: STANDARD PLATE inactive; negative | Test System: AMES SALMONELLA TYPHIMURIUM, Strain/Indicator: TA1537, Metabolic Activation: RAT, LIVER, S-9, AROCLOR 1254, Method: STANDARD PLATE inactive; negative | Test System: AMES SALMONELLA TYPHIMURIUM, Strain/Indicator: TA1537, Metabolic Activation: RAT, LIVER, S-9, PYRAZOLE, Method: STANDARD PLATE inactive; negative | Test System: AMES SALMONELLA TYPHIMURIUM, Strain/Indicator: TA1538, Metabolic Activation: NONE, Method: STANDARD PLATE inactive; negative | Test System: AMES SALMONELLA TYPHIMURIUM, Strain/Indicator: TA1538, Metabolic Activation: RAT, LIVER, S-9, AROCLOR 1254, Method: STANDARD PLATE inactive; negative | Test System: AMES SALMONELLA TYPHIMURIUM, Strain/Indicator: TM677/8-AZAGUANINE, Metabolic Activation: NONE, Method: PREINCUBATION inactive; negative | Test System: AMES SALMONELLA TYPHIMURIUM, Strain/Indicator: TM677/8-AZAGUANINE, Metabolic Activation: RAT, LIVER, S-9, PHENOBARBITAL, Method: PREINCUBATION inactive; negative | Test System: AMES SALMONELLA TYPHIMURIUM, Strain/Indicator: TM677, Metabolic Activation: NONE, Method: STANDARD PLATE inactive; negative | Test System: AMES SALMONELLA TYPHIMURIUM, Strain/Indicator: UTH8413, Metabolic Activation: NONE, Method: STANDARD PLATE inactive; negative | Test System: AMES SALMONELLA TYPHIMURIUM, Strain/Indicator: UTH8413, Metabolic Activation: RAT, LIVER, S-9, AROCLOR, Method: STANDARD PLATE inactive; negative | Test System: AMES SALMONELLA TYPHIMURIUM, Strain/Indicator: UTH8414, Metabolic Activation: NONE, Method: STANDARD PLATE inactive; negative | Test System: AMES SALMONELLA TYPHIMURIUM, Strain/Indicator: UTH8414, Metabolic Activation: RAT, LIVER, S-9, AROCLOR, Method: STANDARD PLATE inactive; negative | Test System: CHINESE HAMSTER OVARY, Strain/Indicator: CHO-K1-BH4 (HGPRT), Metabolic Activation: NONE, Method: SUSPENSION/PLATE inactive; negative | Test System: CHINESE HAMSTER OVARY, Strain/Indicator: CHO-K1-BH4 (HGPRT), Metabolic Activation: RAT, LIVER, S-9, AROCLOR, Method: SUSPENSION/PLATE inactive; negative | Test System: CHINESE HAMSTER OVARY, Strain/Indicator: CHO/6-THIOGUANINE, Metabolic Activation: HAMSTER EMBRYO CELL-MEDIATED inactive; negative | Test System: CHINESE HAMSTER OVARY, Strain/Indicator: CHO/6-THIOGUANINE, Metabolic Activation: NONE inactive; negative | Test System: CHINESE HAMSTER OVARY, Strain/Indicator: CHO/OUABAIN, Metabolic Activation: HAMSTER EMBRYO CELL-MEDIATED inactive; negative | Test System: CHINESE HAMSTER OVARY, Strain/Indicator: CHO/OUABAIN, Metabolic Activation: NONE inactive; negative | Test System: CHINESE HAMSTER V-79, Strain/Indicator: V-79 (HGPRT)/6-THIOGUANINE, Metabolic Activation: NONE inactive; negative | Test System: CHINESE HAMSTER V-79, Strain/Indicator: V-79 (HGPRT)/6-THIOGUANINE, Metabolic Activation: RAT, LIVER, S-9, PHENOBARBITAL AND BETA-NAPHTHOFLAVONE inactive; negative | Test System: CHINESE HAMSTER V-79, Strain/Indicator: V-79/6-THIOGUANINE, Metabolic Activation: RAT, LIVER, S-9, PHENOBARBITAL AND 5,6-BENZOFLAVONE, Method: REPLATING inactive; negative | Test System: MOUSE LYMPHOMA, Strain/Indicator: L5178Y (TK+/TK-), Metabolic Activation: NONE, Method: SUSPENSION/PLATE inactive; negative | Test System: MOUSE LYMPHOMA, Strain/Indicator: L5178Y (TK+/TK-), Metabolic Activation: RAT, LIVER, S-9, Method: SUSPENSION/PLATE inactive; negative | Test System: UDS SHE CELLS, Strain/Indicator: THY INCORP, Metabolic Activation: NONE, Method: LIQUID SCINTILLATION COUNTING inactive; negative
active: Test System: AMES SALMONELLA TYPHIMURIUM, Strain/Indicator: TA1535, Metabolic Activation: RAT, LIVER, S-9, AROCLOR 1254, Method: DESICCATOR active; positive | Test System: MOUSE LYMPHOMA, Strain/Indicator: L5178Y (TK+/+)/OUABAIN, Metabolic Activation: RAT LIVER S-9, AROCLOR 1254, Method: SUSPENSION/PLATE active; positive | Test System: MOUSE LYMPHOMA, Strain/Indicator: L5178Y (TK+/TK-), Metabolic Activation: NONE, Method: MICROWELL active; positive | Test System: MOUSE LYMPHOMA, Strain/Indicator: L5178Y (TK+/TK-), Metabolic Activation: RAT, LIVER, S-9, AROCLOR 1254, Method: SUSPENSION/PLATE active; positive | Test System: MOUSE LYMPHOMA, Strain/Indicator: L5178Y (TK+/TK-), Metabolic Activation: S-9, Method: MICROWELL active; positive | Test System: MOUSE LYMPHOMA, Strain/Indicator: L5178Y(TK+/-)/TRIFLUOROTHYMIDINE, Metabolic Activation: RAT LIVER s-9, AROCLOR 1254, Method: SUSPENSION/PLATE active; positive | Test System: UDS RAT HEPATOCYTES, Strain/Indicator: THY INCORP, Metabolic Activation: NONE, Method: LIQUID SCINTILLATION COUNTING active; positive
